Results reported in US20230103774A1, “USE OF KAURANE COMPOUNDS IN PREPARATION OF DRUG FOR PREVENTION AND TREATMENT OF SEPSIS AND MULTIPLE ORGAN DAMAGE” (KEY-PHARMA BIOMEDICAL INC., priority 2020, published 2023).
“Also recorded” adds a separate entry of the source.

Experiments:
[1] = system: LPS-induced septic mice; test: renal function of LPS-induced septic mice (plasma BUN, Crea, histopathology); assay type: in vivo
Excerpt: The prepared plasma of each group was taken to determine the levels of urea nitrogen (BUN) and creatinine (Crea) in plasma by a microplate reader following the manufacture's instruction.

[2] = system: HIF-1α; test: HIF-1α expression after LPS and macrophage regulation
[3] = system: LPS-induced septic mice; test: liver function of LPS-induced septic mice (plasma ALT, AST, SOD, histopathology); assay type: in vivo
Excerpt: The prepared plasma of each group was taken to determine the levels of alanine aminotransferase (ALT), aspartate aminotransferase (AST) and superoxide dismutase (SOD) in plasma by a microplate reader according to the manufacture's instruction.

[4] = system: LPS-induced septic mice; test: cardiac function of LPS-induced septic mice by echocardiography (Vevo2100); assay type: in vivo; conditions: for ejection fraction (EF) / fractional shortening (FS): 6 h after i.p. LPS, versus LPS group
Excerpt: Six hours after intraperitoneal injection of LPS, mice in each group were weighed and anesthetized, and the cardiac function of the mice was detected by Vevo2100 imaging system. The mice were put into the recumbent position and fixed on a constant temperature heating plate under heart rate of 400-500 times per minute. The limbs were fixed on the four metal poles with tape. The ultrasound probe was placed in the left thoracic region of the mouse, and the short axis of the parasternal left ventricle was obtained by 2D ultrasound. The left ventricular motion was recorded at the papillary muscle level by M-ultrasound, and heart rate (HR), left ventricular systolic diameter (LVID: FS), left ventricular diastolic diameter (LVID: d), left ventricular systolic diameter (LVID: FS), left ventricular diastolic diameter (LVID: Fd), and left ventricular diastolic […] thickness (LVPWF: FdF) were measured. Using Vevo2100 small animal ultrasound system software to process and analyze the acquired images. Determination of mouse plasma myocardial injury indexes (LDH and CK)
Ejection Fractions (EF), refers to the percentage of cardiac stroke volume in ventricular end-diastolic volume, which is an indicator of myocardial contractility. […] The left ventricular short-axis shortening rate (fractional shortening, FS) refers to the ratio of the inner diameter of the ventricle at the end systole to the inner diameter of the ventricular end diastole, and also reflects the systolic function of the heart (FS=(left ventricular end-diastolic diameter (LVDd)−Left ventricular end-systolic diameter (LVDs))/left ventricular end-diastolic diameter×100%).

[5] = system: septic lung tissues; test: acute lung injury caused by sepsis (lung tissue, blood oxygen saturation); assay type: in vivo; conditions: septic mice
[6] = system: LPS-induced lung injury mice; test: lung function by whole body plethysmography (Penh, EF50, TV); assay type: in vivo
Protocol: The lung function of each group of mice was measured at 6 h. Mice were placed in a closed chamber of a whole body plethysmograph (BUXCO, USA), and the plethysmographic chamber was connected to a sensor. […] In this experiment, we used Buxco's pulmonary function testing system to measure and record the 50% tidal expiratory volume, tidal volume, and changes in airway responsiveness in each group of mice by whole body plethysmography to assess lung function. This method offers a real-time lung function of mice under non-invasive conditions. Penh is a pulmonary function parameter related to airway resistance and intrapleural pressure, and Penh is used as an index to evaluate airway response.

[7] = system: TNF-α, IL-6 and IL-1β; test: pro-inflammatory cytokine expression in plasma of septic mice; assay type: in vivo; conditions: 6 h after intraperitoneal injection of LPS; different doses
[8] = system: macrophage M1 and M2 in cardiac tissue; test: ROS and M1/M2 macrophages in heart of septic mice; assay type: in vivo
[9] = system: primary peritoneal macrophages; test: flow cytometry of M1/M2 primary peritoneal macrophages of LPS induced septic mice; assay type: in vivo; conditions: 6 hours after 20 mg/kg LPS i.p., versus LPS group
Protocol: This example illustrates the effect of compound A on macrophage polarization. • (1) Grouping of experimental animals: 6-8 week old Balb/c male mice were randomly divided into 4 groups after one week of adaptive feeding, 10 mice in each group, namely the Control group, the LPS group, the compound A group and the dexamethasone group. The LPS group, compound A group and dexamethasone group were given intraperitoneally injection of a 20 mg/kg of LPS. […]

[10] = system: lactate dehydrogenase (LDH) and creatine kinase (CK) in plasma; test: plasma myocardial injury indexes LDH and CK; assay type: in vivo; conditions: LPS-induced septic mice, versus LPS group, p<0.01
Protocol: Serum lactate dehydrogenase (LDH) and creatine kinase (CK) were determined according to the istructions provided by Nanjing Jiancheng Biotechnology Co., Ltd.

[11] = system: mitochondria; test: mitochondrial protection during sepsis; conditions: administration during sepsis
[12] = system: Animals that survived sepsis; test: fibrosis of affected organs after recovery from sepsis; assay type: in vivo
[13] = dose of 5 mg/kg for adults; cited from earlier work
[14] = system: LPS-induced septic Balb/C mice; test: mortality of LPS-induced septic Balb/C mice after intraperitoneal compound A; assay type: in vivo; conditions: for improved the survival rate of mice: P<0.01
Protocol: This example mainly observes the effect of intraperitoneal injection of different doses of Compound A on the mortality of LPS-septic Balb/C mice.
To observe the effect of intraperitoneal injection of different doses of compound A on the mortality of LPS-induced sepsis mice.
The mice were randomly divided into 6 groups: • (1) Control group: intraperitoneal injection of physiological saline (solvent) (0.1 ml/10 g) once a day for three consecutive days, 1 hour after intraperitoneal injection on the third day, intraperitoneal injection of physiological saline (0.2 ml/10 g); • (2) LPS group: intraperitoneal injection of saline (0.1 ml/10 g), 1 time/d for 3 consecutive days, 1 hour after intraperitoneal injection on the third day, intraperitoneal injection of LPS (20 mg/kg, 0.1 ml/10 g). • (3) Compound A (5 mg/kg)+LPS group: intraperitoneal injection of compound A (5 mg/kg, 0.1 ml/10 g), 1 time/d for 3 consecutive days, 1 hour after intraperitoneal injection on the third day, intraperitoneal injection LPS (20 mg/kg, 0.1 ml/10 g). • (4) Compound A (10 mg/kg)+LPS group: intraperitoneal injection of compound A (10 mg/kg, 0.1 ml/10 g), 1 time/d for 3 consecutive days, 1 hour after intraperitoneal injection on the third day, intraperitoneal injection LPS (20 mg/kg, 0.1 ml/10 g). • (5) Compound A (20 mg/kg)+LPS group: intraperitoneal injection of compound A (20 mg/kg, 0.1 ml/10 g), 1 time/d for 3 consecutive days, 1 hour after intraperitoneal injection on the third day, intraperitoneal injection LPS (20 mg/kg, 0.1 ml/10 g). • (6) Compound A (60 mg/kg)+LPS group: intraperitoneal injection of compound A (60 mg/kg, 0.1 ml/10 g), 1 time/d for 3 consecutive days, 1 hour after intraperitoneal injection on the third day, intraperitoneal injection LPS (20 mg/kg, 0.1 ml/10 g).
After intraperitoneal injection of LPS, the survival of mice in each group was observed every 12 h for six consecutive days.
Based on the previously reports, the dose of 5 mg/kg for adults is an acceptable and safe dose, and the maximum blood concentration reaches 20 μM, which is equivalent to 45 mg/kg in mice. Accordingly, 10 mg/kg STV-Na was employed for further studies.

[15] = system: white blood cells, neutrophils and monocytes; test: white blood cells, neutrophils and monocytes in LPS induced septic mice; assay type: in vivo; conditions: versus LPS group
[16] = solubility; assay type: physicochemical; conditions: sodium salt versus compound A
[17] = under certain conditions in vitro; cited from earlier work
[18] = system: LPS-induced septic mice; test: spleen/body weight ratio after LPS; assay type: in vivo; conditions: even lower than that of the Control group
Protocol: The fur color, consciousness, physical activity, diet, etc. of the mice were observed, and the heart, liver, spleen, lung and kidney of the mice were weighed 6 hours after intraperitoneal injection of LPS.

[19] = pretreated septic mice versus LPS group
[20] = 6 hours after LPS injection, versus LPS group, p<0.01

## C[C@@]12CC[C@@H]3[C@@](CC[C@H]4[C@@]3(C)CCC[C@@]4(C)C(=O)O)(CC1=O)C2 [Compound A, (4α, 8β, 13 β)-13-METHYL-16-OXO-17-Norkauran-18-OIC acid]
[1]; LPS-induced septic mice
  creatinine (Crea) in plasma: significantly reduced
  urea nitrogen (BUN) in plasma: significantly decreased
[1]; LPS-induced septic mice, listed as compound A
  urea nitrogen (BUN) in plasma: significantly reduced
[1]; septic animals
  lesions in the glomerulus and renal tubules (histopathological staining): milder than those in the model group
[2]; after LPS injection
  HIF-1α expression: reduced
[2]; with DMOG, a competitive inhibitor of HIF-1α prolyl hydroxylase
  metabolic regulation effect on macrophages: abolished
[3]; LPS-induced septic mice
  alanine aminotransferase (ALT) in plasma: significantly decreased
  aspartate aminotransferase (AST) in plasma: significantly decreased
  superoxide dismutase (SOD) in plasma: significantly decreased
[3]; septic animals
  infiltration of inflammatory cells in liver (histopathological staining): reduced
[4]
  ejection fraction (EF): significantly improved
  fractional shortening (FS): significantly higher
[4]; listed as STV-Na
  ejection fraction (EF): markedly increased
  fractional shortening (FS): markedly increased
[4]; [19]
  CO: markedly increased
  SV: markedly increased
[5]
  blood oxygen saturation: significantly increased
  lung function / acute lung injury and failure caused by sepsis: significantly recovered
  lung inflammation: significantly reduced
  lung tissue structure: basically normal
[6]; [20]
  EF50 (expiratory flow at 50% tidal volume): significantly higher
  TV (tidal volume): significantly higher
[6]; septic mice
  airway reactivity (Penh): returned to normal
[7]
  TNF-α, IL-1β and IL-6 in plasma: dose-dependently decreased
[8]
  level of ROS in heart: inhibited
[8]; M1: IL-1β, McP1, CD11c, M2: Ym1, CD206
  biomarkers of M1 and M2 macrophages and number of macrophages in cardiac tissue: significantly decreased
[9]
  M1 peritoneal macrophages (F4/80+CD11c+ CD206−): significantly inhibit; also recorded: significantly reduced
  M2 peritoneal macrophages (F4/80+CD11c− CD206+): significantly inhibit; also recorded: significantly reduced
[10]
  CK level in plasma: significantly decreased
  LDH level in plasma: downward trend
[10]; listed as STV-Na
  LDH level in plasma: significantly decreased
[11]
  cytochrome C release: reduce
  inflammation cytokine TNF-α and IL-1β: inhibiting
  mitochondrial membrane potential: increase
  number of mitochondria: increase
  production of superoxide such as NO in cells: reduce
[12]
  fibrosis and collagen deposition in the lungs, heart, liver, and kidney: marked reduction
[13]
  maximum blood concentration: 20 µM
[14]; 5 mg/kg i.p. 1 time/d for 3 days, then LPS 20 mg/kg i.p., no significant difference with the LPS group (p>0.05)
  survival of mice: all mice in the 5 mg/kg compound A group died
[14]; 10 mg/kg i.p. 1 time/d for 3 days, then LPS 20 mg/kg i.p.
  improved the survival rate of mice: 52%
[14]; 20 mg/kg i.p. 1 time/d for 3 days, then LPS 20 mg/kg i.p.
  improved the survival rate of mice: 67%
[14]; 10-20 mg/kg, large dose of LPS i.p., up to more than two-thirds surviving
  survival rate of mice: significantly improved
[15]
  level of white blood cells, neutrophils and monocytes: significantly reduced
[16]
  solubility: better solubility

## C=C1C[C@@]23CC[C@H]4[C@@](C)(CCC[C@@]4(C)C(=O)O)[C@@H]2CC[C@]1(O)C3 [Compound B, ENT13Hyrdoxyaur-16-EN-18-Oic acid]
[17]
  mutagenicity: mutagenic

## C[C@@H]1C[C@H]2[C@@H]3CCC4=CC(=O)C=C[C@]4(C)[C@@]3(F)[C@@H](O)C[C@]2(C)[C@@]1(O)C(=O)CO [dexamethasone]
[18]
  spleen/body weight ratio: significantly reduced
